According to patent US11518764B2, “Substituted heteroaryls as inhibitors of the BCL6 BTB domain protein-protein interaction” (Ontario Institute for Cancer Research (OICR), priority 2018, dated 2022):

Columns and labels:
[1] = tested on: Karpas422 cells; test: Tumor cell growth inhibition assay; type: cell-based; details: Homo sapiens, KARPAS-422, 144 h, read-out: Tumor Growth Inhibition in Karpas-422 (IC50, uM), Karpas422 cells, six days, ATPlite
Method in brief: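 Growth inhibition was measured by ATPlite luminescence after six days of culture at 37° C. in 5% CO2. Karpas422 cells were seeded at 2,000 per well in Alpha-MEM plus 10% FBS. Compounds were given as a 10-point concentration series with a highest dose of 5 uM.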

[2] = tested on: BCL6 reporter construct (3xBCL6-TK-Luc) in SuDHL4 cells; test: Cell-based luciferase assay; details: Homo sapiens, SU-DHL-4, 48 h, read-out: Luciferase-Assay EC50, uM), SuDHL4-3xBCL6-TK-Luc cells, two days, high dose 10 uM
Method in brief: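 SuDHL4 cells stably carrying a 3×BCL6-site TK-promoter firefly luciferase reporter, seeded at 15,000 cells/well, were dosed over a 10-point range (top 10 uM) and grown two days at 37 °C, 5% CO2. Luminescence then read after adding neolite reagent at room temperature.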

[3] = target: BCL6 BTB domain (Homo sapiens (Human), UniProt P41182); test: Surface plasmon resonance (SPR) assay; type: binding; details: BCL6 BTB domain captured on SA chip, single cycle kinetics

SMILES	IC50 [1]	EC50 [2]	Kd [3]
Cn1cnc2c(c(-c3cc(C(N)=O)c(O)c(F)c3F)cn2CC(=O)Nc2cc(N3CC4CC3CO4)ncc2Cl)c1=O (stereo not drawn) [Compound I-286]	1.54 µM	1.96 µM	83.7 nM
Cc1nc2cc(Cl)c(NC(=O)Cn3cc(-c4cc(F)c(O)c(C(N)=O)c4)c4c(=O)n(C)cnc43)cc2o1 [Compound I-159]	0.282 µM	0.282 µM	47.7 nM
C[C@H](C1CC1)N1CCN(c2cc(NC(=O)Cn3cc(-c4cc(C(N)=O)c(O)c(F)c4F)c4c(=O)n(C)cnc43)c(Cl)cn2)[C@@H](C)C1 [Compound I-425]	0.624 µM	0.629 µM	44.7 nM
Cc1nc2cc(Cl)c(NC(=O)Cn3cc(-c4cc(C(N)=O)c(O)c(F)c4F)c4c(=O)n(C)cnc43)cc2o1 [Compound I-226]	1.89 µM	5.12 µM	468 nM
Cn1cnc2c(c(-c3cc(Cl)c(O)c(C(N)=O)c3)cn2CC(=O)Nc2cc3c(cc2Cl)OCCN3CCN2CCOCC2)c1=O [Compound I-213]	0.878 µM	0.842 µM	18.6 nM
C[C@@H]1CN(c2cc(NC(=O)Cn3cc(-c4cc(Cl)c(O)c(C(N)=O)c4)c4c(=O)n(C)cnc43)c(Cl)cn2)C[C@H](C)O1 [Compound I-13]	0.18 µM	0.17 µM	22 nM
CN1CC2(CCN(c3cc(NC(=O)Cn4cc(-c5cc(C(N)=O)c(O)c(F)c5F)c5c(=O)n(C)cnc54)c(Cl)cn3)C2)C1 [Compound I-483]	10 µM	10 µM	128 nM
C[C@@H]1COC[C@@H](C)N1c1cc(NC(=O)Cn2cc(-c3cc(Cl)c(O)c(C(N)=O)c3)c3c(=O)n(C)cnc32)c(Cl)cn1 [Compound I-259]	0.652 µM	0.214 µM	38.5 nM
C[C@H]1COCCN1c1cc(NC(=O)Cn2cc(-c3cc(C(N)=O)c(O)c(Cl)c3F)c3c(=O)n(C)cnc32)c(Cl)cn1 [Compound I-167]	2.34 µM	2.81 µM	299 nM
CN1CCOC2(CCN(c3cc(NC(=O)Cn4cc(-c5cc(C(N)=O)c(O)c(F)c5F)c5c(=O)n(C)cnc54)c(Cl)cn3)C2)C1 (stereo not drawn) [Compound I-403]	3.32 µM	5.54 µM	81.9 nM
CN1CCOC2(CCN(c3cc(NC(=O)Cn4cc(-c5cc(Cl)c(O)c(C(N)=O)c5)c5c(=O)n(C)cnc54)c(Cl)cn3)C2)C1 (stereo not drawn) [Compound I-132]	0.067 µM	0.192 µM	10 nM
Cc1nc2c(c(-c3cc(C(N)=O)c(O)c4c3OCO4)cn2CC(=O)Nc2cc(N3CCOC[C@@H]3C)ncc2Cl)c(=O)n1C [Compound I-308]	0.0161 µM	0.0368 µM	2.05 nM
C[C@@H]1CN(C)C[C@H](C)N1c1cc(NC(=O)Cn2cc(-c3cc(C(N)=O)c(O)c(F)c3F)c3c(=O)n(C)cnc32)c(Cl)c(F)n1 [Compound I-229]	0.0784 µM	0.102 µM	16.3 nM
Cn1cnc2c(c(-c3cc(Cl)c(O)c(C(N)=O)c3)cn2CC(=O)Nc2nc(N3CCOCC3)c(F)cc2Cl)c1=O [Compound I-328]	2.66 µM	3.76 µM	239 nM
CN1CCC2(C1)CN(c1cc(NC(=O)Cn3cc(-c4cc(F)c(O)c(C(N)=O)c4)c4c(=O)n(C)cnc43)c(Cl)cn1)C2 [Compound I-486]	10 µM	6.95 µM	30 nM
CN1CC2CCC(C1)N2c1cc(NC(=O)Cn2cc(-c3cc(Cl)c(O)c(C(N)=O)c3)c3c(=O)n(C)c(C(F)(F)F)nc32)c(Cl)cn1 [Compound I-396]	0.749 µM	0.683 µM	226 nM
C[C@H]1COCCN1c1cc(NC(=O)Cn2cc(-c3cc(C(N)=O)c(O)c(F)c3F)c3c(=O)n(C)cnc32)c(Cl)cn1 [Compound I-180]	2.18 µM	1.37 µM	45.4 nM
Cn1cnc2c(c(-c3cc(Cl)c(O)c(C(N)=O)c3)cn2CC(=O)Nc2cc(N3C4CCC3CN(CC(F)(F)F)C4)ncc2Cl)c1=O [Compound I-466]	0.773 µM	3.81 µM	519 nM
